Measured values: US20120214818A1, “METHODS OF TREATING DIASTOLIC DYSFUNCTION AND RELATED CONDITIONS” (THE BOARD OF TRUSTEES OF THE UNIVERSITY OF ILLINOIS, priority 2009, published 2012)

Legend:
[1] = test system: isolated ventricular cardiomyocytes from DOCA-salt and sham mice; assay: Cell shortening (sarcomere shortening and relengthening) of isolated cardiomyocytes; type: cell-based, mouse; conditions: for relaxation τ (relaxation time constant): 10 μmol/L ranolazine 10 min
Method: Myocyte isolation: Cardiac ventricular myocytes were isolated from the hearts of DOCA-salt or age matched controls mice 14-18 d post-operatively using a modified enzymatic digestion protocol from the Alliance for Cellular Signaling as previously described.^20 Cell shortening and calcium transient measurements: The mechanical properties of the cardiomyocytes were assessed using an IonOptix Myocam System (Ionoptix Inc., Milton, Mass.). Unloaded cardiomyocytes were placed on a glass slide and allowed to adhere for 10 min. Cardiomyocytes were then imaged with an inverted microscope and perfused with a Tyrode's buffer containing 1.2 mmol/L calcium at room temperature. Cardiomyocytes were paced at 0.5 Hz for 10 ms duration, and sarcomere shortening and relengthening were assessed using the following indices: peak fractional shortening (FS), time to 90% peak shortening, and τ, the relaxation time constant (a0+[…]^t/τ, t=time). Cardiomyocytes were treated with 10 μmol/L ranolazine for 10 min prior to evaluation. For calcium transient measurements, cardiomyocytes were loaded with 1 μmol/L Fura 2-AM for 10 min at room temperature, and fluorescence measurements were recorded with a dual-excitation fluorescence photomultiplier system (IonOptix). After loading, the cells were washed and resuspended in normal Tyrode solution. The cardiomyocytes were placed then in the cell chamber, stimulated at 0.5 Hz for 10 ms duration, and imaged through a Fluor×40 objective lens. Cells were exposed to light emitted by a 75-W Xenon lamp and passed though either a 340- or 380-nm wavelength filter. The emitted fluorescence was detected at 510 nm. To take into account any inference from background fluorescence, the background fluorescence for each cardiomyocyte was determined by moving the cardiomyocyte out of the view and recording the fluorescence from the bath solution alone. The mechanical properties of the cardiomyocytes were assessed using an IonOptix Myocam System (Ionoptix Inc., Milton, Mass.). Unloaded cardiomyocytes were placed on a glass slide and allowed to adhere for 10 min at 37° C. Cardiomyocytes were then imaged with an inverted microscope and perfused with a Tyrode's buffer containing 1.2 mmol/L calcium at room temperature. Cardiomyocytes were paced at 0.5, 1, or 2 Hz for 10 ms duration, and sarcomere shortening and relengthening were assessed using the following indices: peak fractional shortening (FS), time to 90% peak shortening, and τ, the relaxation time constant (a0+[…]^t/τ, t=time). Cardiomyocytes were treated with 10 μmol/L ranolazine for 10 min prior to evaluation. […] For calcium transient measurements, cardiomyocytes were loaded with 1 μmol/L fura 2-AM for 10 min at 37° C., and fluorescence measurements were recorded with a dual-excitation fluorescence photomultiplier system (IonOptix). After loading, the cells were washed and resuspended in normal Tyrode solution. The cardiomyocytes were placed then in the cell chamber, stimulated at 0.5, 1, or 2 Hz for 10 ms duration, and imaged through a Fluor×40 objective lens. Cells were exposed to light emitted by a 75-W Xenon lamp and passed though either a 340- or 380-nm wavelength filter. The emitted fluorescence was detected at 510 nm. To take into account any interference, the background fluorescence for each cardiomyocyte was determined by moving the cardiomyocyte out of the view and recording the fluorescence from the bath solution alone. Myocyte isolation: Cardiac ventricular myocytes were isolated from the hearts of DOCA-salt or age matched controls mice 14-18 d post-operatively using a modified enzymatic digestion protocol from the Alliance for Cellular Signaling as previously described (Silberman et al., Circulation 121: 519-528 (2010)).

[2] = test system: isolated ventricular myocytes from DOCA-salt and sham mice; assay: Calcium transient measurements (Fura-2AM) in isolated cardiomyocytes; type: cell-based, mouse; conditions: 10 μM ranolazine
Method: Cell shortening and calcium transient measurements: The mechanical properties of the cardiomyocytes were assessed using an IonOptix Myocam System (Ionoptix Inc., Milton, Mass.). Unloaded cardiomyocytes were placed on a glass slide and allowed to adhere for 10 min. Cardiomyocytes were then imaged with an inverted microscope and perfused with a Tyrode's buffer containing 1.2 mmol/L calcium at room temperature. Cardiomyocytes were paced at 0.5 Hz for 10 ms duration, and sarcomere shortening and relengthening were assessed using the following indices: peak fractional shortening (FS), time to 90% peak shortening, and τ, the relaxation time constant (a0+[…]^t/τ, t=time). […] For calcium transient measurements, cardiomyocytes were loaded with 1 μmol/L Fura 2-AM for 10 min at room temperature, and fluorescence measurements were recorded with a dual-excitation fluorescence photomultiplier system (IonOptix). […] The emitted fluorescence was detected at 510 nm. To take into account any inference from background fluorescence, the background fluorescence for each cardiomyocyte was determined by moving the cardiomyocyte out of the view and recording the fluorescence from the bath solution alone. The mechanical properties of the cardiomyocytes were assessed using an IonOptix Myocam System (Ionoptix Inc., Milton, Mass.). […] The emitted fluorescence was detected at 510 nm. […]

[3] = DOCA-salt cardiomyocytes paced at 1 Hz and 2 Hz (FIG. 14)

COc1ccccc1OCC(O)CN1CCN(CC(=O)Nc2c(C)cccc2C)CC1 (stereo not shown) [ranolazine]
relaxation time (τ) at 1 and 2 Hz pacing [1, 3]: improved relaxations times at both frequencies
sarcomere length at 1 and 2 Hz pacing [1, 3]: lengthened sarcomere length at both frequencies
relaxation τ (relaxation time constant) ([1]; DOCA-salt cardiomyocytes, 0.5 Hz, 37° C. (Example 7)): 0.13 ± 0.01 s
relaxation τ (relaxation time constant) ([1]; DOCA-salt cardiomyocytes, paced 0.5 Hz, room temperature (Example 3)): 0.08 ± 0.01 s
resting (baseline) sarcomere length ([1]; DOCA-salt cardiomyocytes, 10 μmol/L ranolazine (Example 6)): 1.81±0.01 μm
resting (baseline) sarcomere length ([1]; DOCA-salt cardiomyocytes, 10 μmol/L ranolazine, 37° C. (Example 7)): 1.81±0.01 μm
contraction (fractional shortening, time to 90% peak contraction) ([1]; sham and DOCA-salt cardiomyocytes, 10 μmol/L ranolazine): did not affect contraction
relaxation τ (relaxation time constant) ([1]; sham cardiomyocytes, 0.5 Hz, 37° C. (Example 7)): 0.09 ± 0.02 s
relaxation τ (relaxation time constant) ([1]; sham cardiomyocytes, paced 0.5 Hz, room temperature (Example 3)): 0.07 ± 0.01 s
resting (baseline) sarcomere length ([1]; sham cardiomyocytes, 10 μmol/L ranolazine (Example 6)): 1.82±0.01 μm
resting (baseline) sarcomere length ([1]; sham cardiomyocytes, 10 μmol/L ranolazine, 37° C. (Example 7)): 1.86±0.02 μm
reversibility of the effect on relaxation and sarcomere length ([1]; washout): reversible upon washout
Ca2+ transients [2]: did not affect either group
